The subject of data set [1] is Rattus norvegicus. The data set is described as follows: Antiinsomnic activity in CD1 rat assessed as increase of REM sleep at 3 mg/kg, po administered at circadian time 18 hrs measured after 3 hrs. The class given is functional.
For another data set, the target named is T1, Orexin receptor type 2 (Homo sapiens, UniProt O43614).
T1 sequence (O43614 whole entry): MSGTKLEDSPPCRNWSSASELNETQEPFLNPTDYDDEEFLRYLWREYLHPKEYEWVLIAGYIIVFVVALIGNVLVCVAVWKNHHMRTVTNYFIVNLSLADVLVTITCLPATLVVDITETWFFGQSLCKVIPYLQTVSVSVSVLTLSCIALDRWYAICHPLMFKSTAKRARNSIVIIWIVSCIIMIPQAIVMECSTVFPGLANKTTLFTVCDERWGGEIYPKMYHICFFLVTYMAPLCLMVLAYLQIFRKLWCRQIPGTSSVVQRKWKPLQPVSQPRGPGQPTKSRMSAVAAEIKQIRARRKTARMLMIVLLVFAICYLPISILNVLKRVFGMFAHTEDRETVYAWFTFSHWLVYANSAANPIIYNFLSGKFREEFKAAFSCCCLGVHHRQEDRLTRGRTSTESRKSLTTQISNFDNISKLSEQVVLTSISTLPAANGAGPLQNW
As to the kind of experiment: Displacement of [3H]EMPA from human orexin receptor-2 expressed in HEK293 cells after 90 mins by scintillation counting. The class given is cell-based.

The nature of data set [2]: Volume of distribution at steady state in beagle dog at 1 mg/kg, iv. The conditions noted are these: in vivo, read-out: Vdss. It is filed as ADME, organism-based, Canis lupus familiaris.
For a further data set, the target named is Cytochrome P450 2C19 (Homo sapiens, UniProt P33261). The data set is described as follows: Inhibition of CYP2C19 (unknown origin). The class given is ADME.
Cytochrome P450 2C19, sequence (P33261 whole entry): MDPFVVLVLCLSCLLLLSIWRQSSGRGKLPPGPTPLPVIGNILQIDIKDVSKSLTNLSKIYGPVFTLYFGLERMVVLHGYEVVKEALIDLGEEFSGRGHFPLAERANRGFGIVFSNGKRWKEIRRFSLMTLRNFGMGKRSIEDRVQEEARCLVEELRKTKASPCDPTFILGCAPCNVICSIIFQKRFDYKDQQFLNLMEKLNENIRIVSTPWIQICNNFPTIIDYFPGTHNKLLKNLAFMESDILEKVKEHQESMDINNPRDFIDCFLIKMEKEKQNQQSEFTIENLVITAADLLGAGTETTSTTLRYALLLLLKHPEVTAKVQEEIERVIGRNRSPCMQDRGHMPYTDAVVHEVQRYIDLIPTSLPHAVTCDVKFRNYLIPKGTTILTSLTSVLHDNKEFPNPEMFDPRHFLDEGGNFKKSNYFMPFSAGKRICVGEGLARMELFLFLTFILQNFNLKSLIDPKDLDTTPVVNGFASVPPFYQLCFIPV
Data set [3] is described as follows: Plasma protein binding in human. It is filed as ADME, cell-free. Conditions: read-out: PPB (converted).
Data set [4] deals with T2, Orexin receptor type 2 (Homo sapiens) (UniProt O43614).
T2 sequence (whole entry): T1 sequence (O43614 whole entry)
Description: Binding affinity to orexin receptor-2 (unknown origin) assessed as dissociation half-life by Motulsky-Mahan radioligand binding assay

For data set [5], the system named is Rattus norvegicus. The data set is described as follows: Antiinsomnic activity in CD1 rat assessed as reduction of time spent awake at 3 to 10 mg/kg, po administered at circadian time 18 hrs measured after 3 hrs. The class given is functional. The arrangement: scale not given: the % may be the effect or the level left.
Data set [6] is described as follows: Half life in beagle dog at 1 mg/kg, po. The class given is ADME, organism-based, Canis lupus familiaris. The conditions noted are these: in vivo.
Data set [7] in a line: Efflux ratio of the compound in human Caco2 cells. The class given is ADME, cell-based. Conditions: Caco-2. In general terms: Caco-2 monolayers are a common model of the intestinal barrier.
The target in a further data set is T3, Cytochrome P450 2C8 (Homo sapiens, UniProt P10632).
T3 sequence (P10632 whole entry): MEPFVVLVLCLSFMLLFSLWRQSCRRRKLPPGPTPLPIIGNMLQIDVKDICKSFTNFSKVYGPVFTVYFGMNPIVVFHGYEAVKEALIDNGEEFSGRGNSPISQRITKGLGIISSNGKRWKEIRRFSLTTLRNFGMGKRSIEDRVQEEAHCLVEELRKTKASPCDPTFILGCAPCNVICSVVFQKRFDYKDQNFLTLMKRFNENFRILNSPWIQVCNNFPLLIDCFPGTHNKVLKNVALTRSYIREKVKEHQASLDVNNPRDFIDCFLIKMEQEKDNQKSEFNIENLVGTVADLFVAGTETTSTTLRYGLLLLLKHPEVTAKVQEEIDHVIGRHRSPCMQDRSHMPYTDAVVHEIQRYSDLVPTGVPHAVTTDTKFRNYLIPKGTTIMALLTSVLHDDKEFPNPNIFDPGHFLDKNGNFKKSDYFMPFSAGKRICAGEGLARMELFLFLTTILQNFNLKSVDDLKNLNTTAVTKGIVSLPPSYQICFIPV
The data set is described as follows: Inhibition of CYP2C8 (unknown origin). It is filed as ADME.

A short description of data set [8]: Half life in human hepatocytes. The class given is ADME, cell-based, Hepatocyte.
A further data set concerns the target T4, Cytochrome P450 1A2 (Homo sapiens, UniProt P05177).
T4 sequence (P05177 whole entry): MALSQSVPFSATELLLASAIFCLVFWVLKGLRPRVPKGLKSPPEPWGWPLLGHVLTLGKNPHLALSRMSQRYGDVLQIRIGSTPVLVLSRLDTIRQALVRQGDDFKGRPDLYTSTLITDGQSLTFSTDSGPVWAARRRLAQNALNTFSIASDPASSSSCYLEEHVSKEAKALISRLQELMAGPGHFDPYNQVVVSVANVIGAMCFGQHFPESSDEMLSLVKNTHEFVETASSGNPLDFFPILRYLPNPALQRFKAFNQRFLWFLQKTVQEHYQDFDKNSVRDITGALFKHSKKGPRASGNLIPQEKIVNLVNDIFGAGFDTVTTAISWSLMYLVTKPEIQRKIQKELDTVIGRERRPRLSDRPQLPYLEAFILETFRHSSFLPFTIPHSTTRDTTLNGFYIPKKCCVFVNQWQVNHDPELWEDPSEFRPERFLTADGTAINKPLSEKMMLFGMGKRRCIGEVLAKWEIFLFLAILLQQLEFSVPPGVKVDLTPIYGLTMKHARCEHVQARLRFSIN
The data set is described as follows: Inhibition of CYP1A2 (unknown origin). It is filed as ADME.

In data set [9] the target is T2, Orexin receptor type 2 (Homo sapiens). The source holds these as a separate data set.
Description: Binding affinity to orexin receptor-2 (unknown origin) assessed as dissociation half-life by SPR assay
Data set [10] is described as follows: Tmax in beagle dog at 1 mg/kg, po. Conditions: in vivo. The class given is ADME, organism-based, Canis lupus familiaris.
Data set [11] concerns the target T5, Orexin/Hypocretin receptor type 1 (Homo sapiens) (UniProt O43613).
T5 sequence (whole entry): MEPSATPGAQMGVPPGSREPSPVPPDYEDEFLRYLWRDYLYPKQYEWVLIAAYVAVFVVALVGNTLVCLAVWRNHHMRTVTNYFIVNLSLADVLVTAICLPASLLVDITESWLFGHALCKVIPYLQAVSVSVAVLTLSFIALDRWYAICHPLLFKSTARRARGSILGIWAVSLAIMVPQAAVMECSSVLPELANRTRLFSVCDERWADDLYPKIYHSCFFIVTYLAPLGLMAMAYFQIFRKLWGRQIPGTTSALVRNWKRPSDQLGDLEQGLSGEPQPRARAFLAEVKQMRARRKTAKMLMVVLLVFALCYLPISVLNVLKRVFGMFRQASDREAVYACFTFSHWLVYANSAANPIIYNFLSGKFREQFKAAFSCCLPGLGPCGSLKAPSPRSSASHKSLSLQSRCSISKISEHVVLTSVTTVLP

The subject of data set [12] is Rattus norvegicus. As to the kind of experiment: Antiinsomnic activity in CD1 rat assessed as increase of NREM sleep at 3 mg/kg, po administered at circadian time 18 hrs measured after 3 hrs. It is filed as functional.
The nature of data set [13]: Mean residence time in beagle dog. The class given is ADME, organism-based, Canis lupus familiaris. The conditions noted are these: in vivo.
For data set [14], the target named is T2, Orexin receptor type 2 (Homo sapiens). The conditions noted are these: CHO.
Description: Antagonist activity at human orexin receptor-2 expressed in CHO cells assessed as orexin-A-induced ERK1/2 phosphorylation after 2 hrs by fluorescence assay
A short description of data set [15]: Ratio of drug level in brain to plasma in Sprague-Dawley rat at 1 mg/kg, iv after 0.5 hrs. Conditions: read-out: BPR. It is filed as ADME, organism-based.
Data set [16] has as its target Voltage-gated inwardly rectifying potassium channel KCNH2 (Homo sapiens, UniProt Q12809). The data set is described as follows: Inhibition of human ERG.
Data set [17] can be described thus: Clearance in beagle dog at 1 mg/kg, iv. It is filed as ADME, organism-based, Canis lupus familiaris. Conditions: in vivo.
For data set [18], the target named is T6, Orexin/Hypocretin receptor type 1 (Homo sapiens, UniProt O43613).
T6 sequence (O43613 whole entry): T5 sequence (whole entry)
As to the kind of experiment: Displacement of [3H]-4-(2,6-Difluoro-4-methoxybenzyl)-2-(5,6-dimethoxypyridin-3-yl)-2H-1,2,4-benzothiadiazin-3(4H)-one 1,1-dioxide from orexin receptor-1 (unknown origin) after 90 mins. (In general: Loss of bound radioactivity is the signal in a displacement assay; it reports binding, not function.)

For the next data set, the target named is Cytochrome P450 2C9 (Homo sapiens, UniProt P11712). The data set is described as follows: Inhibition of CYP2C9 (unknown origin). It is filed as ADME.
Cytochrome P450 2C9, sequence (P11712 whole entry): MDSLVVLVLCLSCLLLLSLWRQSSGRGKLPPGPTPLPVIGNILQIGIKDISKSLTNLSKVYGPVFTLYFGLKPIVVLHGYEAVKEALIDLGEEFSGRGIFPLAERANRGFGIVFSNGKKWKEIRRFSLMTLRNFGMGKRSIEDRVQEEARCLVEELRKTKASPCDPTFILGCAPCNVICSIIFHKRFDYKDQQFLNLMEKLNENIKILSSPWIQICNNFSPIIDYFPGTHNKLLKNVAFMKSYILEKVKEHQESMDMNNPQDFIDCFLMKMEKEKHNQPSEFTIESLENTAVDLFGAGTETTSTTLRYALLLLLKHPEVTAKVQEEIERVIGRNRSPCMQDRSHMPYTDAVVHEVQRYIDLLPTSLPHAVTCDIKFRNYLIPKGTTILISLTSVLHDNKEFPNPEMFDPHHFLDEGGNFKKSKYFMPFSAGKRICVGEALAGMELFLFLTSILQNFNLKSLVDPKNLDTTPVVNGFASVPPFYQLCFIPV

Voltage-gated inwardly rectifying potassium channel KCNH2, sequence (Q12809 whole entry): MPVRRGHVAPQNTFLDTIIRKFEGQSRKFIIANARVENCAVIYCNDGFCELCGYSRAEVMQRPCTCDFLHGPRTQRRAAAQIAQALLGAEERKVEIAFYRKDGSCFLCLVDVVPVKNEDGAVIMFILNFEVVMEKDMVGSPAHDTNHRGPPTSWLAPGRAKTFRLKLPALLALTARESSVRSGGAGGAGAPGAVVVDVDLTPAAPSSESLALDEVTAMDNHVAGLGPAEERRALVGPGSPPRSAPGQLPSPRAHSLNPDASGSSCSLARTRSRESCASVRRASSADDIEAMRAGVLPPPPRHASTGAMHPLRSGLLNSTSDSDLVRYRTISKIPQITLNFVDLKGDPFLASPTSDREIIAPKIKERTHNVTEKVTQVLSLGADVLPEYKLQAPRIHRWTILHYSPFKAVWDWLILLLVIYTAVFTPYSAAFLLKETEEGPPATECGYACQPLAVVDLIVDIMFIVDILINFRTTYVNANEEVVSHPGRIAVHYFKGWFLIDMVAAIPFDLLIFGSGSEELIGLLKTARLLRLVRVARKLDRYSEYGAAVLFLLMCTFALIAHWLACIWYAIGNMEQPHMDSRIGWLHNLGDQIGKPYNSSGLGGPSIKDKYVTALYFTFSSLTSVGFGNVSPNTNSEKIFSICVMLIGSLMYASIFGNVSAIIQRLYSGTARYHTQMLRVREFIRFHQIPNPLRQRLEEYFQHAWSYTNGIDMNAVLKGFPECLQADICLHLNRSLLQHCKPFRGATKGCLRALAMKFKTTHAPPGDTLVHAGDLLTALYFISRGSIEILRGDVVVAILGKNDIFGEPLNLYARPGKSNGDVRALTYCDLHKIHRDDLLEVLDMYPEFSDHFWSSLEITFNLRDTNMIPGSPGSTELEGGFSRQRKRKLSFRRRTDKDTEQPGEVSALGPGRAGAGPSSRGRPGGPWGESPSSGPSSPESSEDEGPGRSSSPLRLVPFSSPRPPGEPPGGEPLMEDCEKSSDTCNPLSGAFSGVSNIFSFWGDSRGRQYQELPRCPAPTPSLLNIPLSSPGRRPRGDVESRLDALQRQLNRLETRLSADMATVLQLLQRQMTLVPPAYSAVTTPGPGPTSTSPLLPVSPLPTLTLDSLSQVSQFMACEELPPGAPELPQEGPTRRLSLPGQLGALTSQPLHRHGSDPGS

A word on the Ki: it is the equilibrium dissociation constant of an inhibitor or competing ligand from its target. As a reminder, the IC50 is the concentration that gives 50% inhibition. Broadly, the half-life is the time in which the quantity being followed falls by half. For orientation: efflux ratio means a quotient of directional permeabilities that is used to spot active efflux. Broadly, the Tmax is the time from dosing to the highest level. In general, MRT refers to a mean duration of stay, worked out from the concentration-time curve. Usually pKb stands for the negative decadic logarithm of the Kb, by convention in mol/L. In general, clearance refers to a measure of how efficiently the substance is removed, as volume per time. For `COc1cc(N2C(=O)N(Cc3c(F)cc(F)cc3F)c3ncccc3S2(=O)=O)cnc1OC`, the Activity in the data set with Rattus norvegicus [1] was 70.6%; in the data set on Rattus norvegicus [5] it was 18.5%; with Rattus norvegicus [12], 28.8%. The values for the Ki (on Orexin receptor type 2; in data set [18]) were 0.00251 µM and 0.02 µM, respectively. In [2], the Vd turned out to be 3 L/kg. In addition, the IC50 (on Cytochrome P450 2C19; at Cytochrome P450 2C8; against Cytochrome P450 1A2; in data set [16]; against Cytochrome P450 2C9) was more than 10 µM each time. Moreover, the fraction unbound in [3] is 0.007. Besides, the T1/2 came out at 7.6 min in data set [4], 4.2 min in data set [9] and 0.8 min in data set [11]. The half-life is 426 min in data set [6] and more than 250 min in data set [8]. Besides, in data set [7], the efflux ratio was found to be 0.7. Moreover, the Tmax in data set [10] turned out to be 24 min. This molecule showed an MRT in [13] of 240 min. Further, the pKb in [14] worked out at 7.3. The Kp at 0.5 h in data set [15] was found to be 0.49. Also, the clearance in data set [17] worked out at 13 mL/min/kg.

The record behind these values is ChEMBL document CHEMBL3739366, “Discovery of HTL6641, a dual orexin receptor antagonist with differentiated pharmacodynamic properties” (Medchemcomm, 2015).
